Where “and” joins values, the source holds several entries; their conditions need not be identical. Identical values can stand only once.
Legend:
[1] = target: T1, UGT enzymes of human liver microsomes; assay: Inhibition of 7-HFC glucuronidation in human liver microsomes; assay type: biochemical; details: for % of control metabolism (SD, n = 3), 7-HFC glucuronidation: human liver microsomes 100 μg/ml
T1 construct: percentage of control metabolism, 7-HFC glucuronidation; percentage of control metabolism, 7-HFC glucuronidation

[2] = system: T1, UGT enzymes of human liver microsomes; assay: Kinetic and Ki studies of inhibitors of 7-HFC glucuronidation in human liver microsomes; assay type: biochemical; details: 7-HFC 20-500 μM
[3] = system: UGT enzymes of pooled human jejunum microsomes; assay: Inhibition of raloxifene glucuronidation (G1, G2) in pooled human jejunum microsomes; assay type: biochemical; details: jejunum HJ61; inhibitor 50 μM
Method: Compounds were eluted using a binary solvent gradient system. […] Solvent B was methanol. […] Detection was at 280 nm.
Standardized incubations utilized […] microsomal protein, 1 mM UDPGA and a 30 min incubation time.

[4] = system: T2, UGT enzymes of human liver microsomes; assay: Inhibition of estradiol (E2) glucuronidation in human liver microsomes; assay type: biochemical; details: liver 032101, E2 50 μM
T2 construct: residual metabolism (% of control), E2-17-β-D-glucuronide; other: liver 032101; residual metabolism (% of control), E2-17-β-D-glucuronide
Description: (§1) Compounds were eluted using a binary solvent gradient system where solvent A was dilute phosphoric acid (pH 3) and solvent B was 80:20 acetonitrile-methanol. […] Detection was at 280 nm.

[5] = system: T3, UGT enzymes of human liver microsomes; assay: as above; assay type: biochemical; details: liver 032101, E2 50 μM
T3 construct: residual metabolism (% of control), E2-3-β-D-glucuronide; other: liver 032101; residual metabolism (% of control), E2-3-β-D-glucuronide
Description: as §1

[6] = system: T4, UGT enzymes of human liver microsomes; assay: Inhibition of 2ME2 glucuronidation (MG1, MG2) in human liver microsomes; assay type: biochemical; details: liver 062101, 2ME2 50 μM
T4 construct: other: liver 062101
Description: as §1

[7] = target: T5, UGT1A1 (Homo sapiens, UniProt P22309); assay: Inhibition of raloxifene glucuronidation by recombinant UGT1A1 Supersomes; details: for activity at 15 min / activity at 15 min, 10 µM / activity at 15 min, 25 µM / activity at 15 min, 50 µM: human; for activity at 15 min, 10 µM: inhibitor 10 μM; for activity at 15 min, 25 µM: inhibitor 25 μM; for activity at 15 min, 50 µM: inhibitor 50 μM
T5 sequence (P22309 26-533): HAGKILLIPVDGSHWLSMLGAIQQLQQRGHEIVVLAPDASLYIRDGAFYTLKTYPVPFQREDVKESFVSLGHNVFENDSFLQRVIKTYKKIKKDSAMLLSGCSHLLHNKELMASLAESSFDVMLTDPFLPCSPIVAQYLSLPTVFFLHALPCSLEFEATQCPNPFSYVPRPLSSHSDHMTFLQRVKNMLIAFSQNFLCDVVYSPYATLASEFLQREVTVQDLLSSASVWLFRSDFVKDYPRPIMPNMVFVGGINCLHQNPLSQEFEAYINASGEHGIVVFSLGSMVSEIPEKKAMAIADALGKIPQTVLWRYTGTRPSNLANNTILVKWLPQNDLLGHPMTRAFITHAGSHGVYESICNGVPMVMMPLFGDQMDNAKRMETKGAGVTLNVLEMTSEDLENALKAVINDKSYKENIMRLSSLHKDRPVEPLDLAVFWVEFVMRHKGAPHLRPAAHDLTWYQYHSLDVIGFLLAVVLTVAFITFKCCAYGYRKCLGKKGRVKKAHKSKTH
Method: (§2) Compounds were eluted using a binary solvent gradient system. Solvent A was water brought to pH 8 with NH4OH. Solvent B was methanol. Solvent flow rate was 1 ml/min and the column temperature was maintained at 50° C. Detection was at 280 nm. […] The system was then returned to the initial conditions and equilibrated for 3 min.

[8] = target: T6, UGT1A9 (Homo sapiens, UniProt O60656); assay: Inhibition of raloxifene glucuronidation by recombinant UGT1A9 Supersomes; details: for activity at 15 min, 50 µM: human, Supersomes with recombinant human UGT1A9, pH 7.5, probe raloxifene 50 μM
T6 sequence (O60656 26-530): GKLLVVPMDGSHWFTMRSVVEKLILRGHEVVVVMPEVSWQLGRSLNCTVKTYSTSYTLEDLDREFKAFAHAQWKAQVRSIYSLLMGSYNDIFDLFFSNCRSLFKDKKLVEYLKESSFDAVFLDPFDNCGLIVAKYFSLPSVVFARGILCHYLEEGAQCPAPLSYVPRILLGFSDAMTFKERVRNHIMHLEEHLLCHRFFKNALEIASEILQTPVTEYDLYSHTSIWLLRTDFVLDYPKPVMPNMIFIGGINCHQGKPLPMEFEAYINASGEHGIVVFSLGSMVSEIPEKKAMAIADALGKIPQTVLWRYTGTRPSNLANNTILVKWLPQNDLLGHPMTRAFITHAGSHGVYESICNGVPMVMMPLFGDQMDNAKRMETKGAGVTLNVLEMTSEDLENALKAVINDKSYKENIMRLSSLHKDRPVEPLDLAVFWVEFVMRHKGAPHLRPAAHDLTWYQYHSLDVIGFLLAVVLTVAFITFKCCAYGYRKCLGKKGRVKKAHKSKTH
Method: as §2

[9] = Supersomes with recombinant human UGT1A1, pH 7.5, probe raloxifene 50 μM, formation of glucuronide G1, % of control metabolism, raloxifene G1, UGT1A1
[10] = Supersomes with recombinant human UGT1A1, pH 7.5, probe raloxifene 50 μM, formation of glucuronide G1, Inhibition of raloxifene glucuronidation, G1, UGT1A1, G1, raloxifene 50 μM, 250 μg/ml Supersomes, 1 mM UDPGA, 15 min
[11] = Supersomes with recombinant human UGT1A1, pH 7.5, probe raloxifene 50 μM, formation of glucuronide G2, % of control metabolism, raloxifene G2, UGT1A1
[12] = recombinant UGT1A1 Supersomes, pH 7.5, probe raloxifene 50 μM (formation of glucuronide G2), Inhibition of raloxifene glucuronidation, G2, UGT1A1, G2, raloxifene 50 μM, 250 μg/ml Supersomes, 1 mM UDPGA, 15 min

IC50 ([1]; 7-HFC 50 μM, 1 mM UDPGA, 15 min): ~75 µM
percentage of control metabolism, 7-HFC glucuronidation ([1]; inhibitor 25 μM): 86 (1) %
% of control metabolism (SD, n = 3), 7-HFC glucuronidation ([1]; inhibitor 25 μM, 7-HFC 50 μM, 15 min): 86 (1) %
percentage of control metabolism, 7-HFC glucuronidation ([1]; inhibitor 50 μM): 65 (0) %
% of control metabolism (SD, n = 3), 7-HFC glucuronidation ([1]; inhibitor 50 μM, 7-HFC 50 μM, 15 min): 65 (0) %
percentage of control metabolism, 7-HFC glucuronidation ([1]; inhibitor 100 μM): 26 (1) % and 29 (1) %
% of control metabolism (SD, n = 3), 7-HFC glucuronidation ([1]; inhibitor 100 μM, 7-HFC 50 μM, 15 min): 26 (1), % and 29 (1) %
percentage of control metabolism, 7-HFC glucuronidation ([1]; inhibitor 200 μM): 6 (0) %
% of control metabolism (SD, n = 3), 7-HFC glucuronidation ([1]; inhibitor 200 μM, 7-HFC 50 μM, 15 min): 6 (0) %
percentage of control metabolism, 7-HFC glucuronidation ([1]; inhibitor 500 μM): 0.1 (0.1) %
% of control metabolism (SD, n = 3), 7-HFC glucuronidation ([1]; inhibitor 500 μM, 7-HFC 50 μM, 15 min): 0.1 (0.1) %
Vmax of 7-HFC glucuronidation (fit of the experiment with this inhibitor) [2]: 57 ± 3 nmol/min/mg
Km ([2]; read-out: Km of 7-HFC glucuronidation (fit of the experiment with this inhibitor)): 81 ± 7 µM
% of control metabolism, raloxifene G1 [3]: 80 (3) %
% of control metabolism, raloxifene G2 [3]: 137 (9) %
residual metabolism (% of control), E2-17-β-D-glucuronide ([4]; inhibitor 50 μM): 88 (1) %
residual metabolism (% of control), E2-17-β-D-glucuronide ([4]; inhibitor 100 μM): 74 (2) %
residual metabolism (% of control), E2-3-β-D-glucuronide ([5]; inhibitor 50 μM): 53 (1) %
residual metabolism (% of control), E2-3-β-D-glucuronide ([5]; inhibitor 100 μM): 33 (2) %
residual metabolism (% of control), 2ME2 MG1 ([6]; inhibitor 50 μM): 68 (3) %
residual metabolism (% of control), 2ME2 MG2 ([6]; inhibitor 50 μM): 94 (4) %
residual metabolism (% of control), 2ME2 MG1 ([6]; inhibitor 100 μM): 51 (0) %
residual metabolism (% of control), 2ME2 MG2 ([6]; inhibitor 100 μM): 65 (3) %
inhibition of raloxifene glucuronidation, in words ([7]; UGT1A1): excellent inhibitor
activity at 15 min ([7]; Supersomes with recombinant human UGT1A1, pH 7.5, probe raloxifene 50 μM, formation of glucuronide G1): 65%
activity at 15 min, 10 µM [7, 9]: 65%
activity at 15 min, 25 µM [7, 9]: 37%
activity at 15 min, 50 µM [7, 9]: 18%
activity at 15 min, 25 µM [7, 10]: 37%
activity at 15 min, 50 µM [7, 10]: 18%
activity at 15 min, 10 µM [7, 11]: 75%
activity at 15 min, 25 µM [7, 11]: 51%
activity at 15 min, 50 µM [7, 11]: 31%
activity at 15 min ([7]; recombinant UGT1A1 Supersomes, pH 7.5, probe raloxifene 50 μM (formation of glucuronide G2)): 75%
activity at 15 min, 25 µM [7, 12]: 51%
activity at 15 min, 50 µM [7, 12]: 31%
inhibition of raloxifene glucuronidation, in words ([8]; UGT1A9): very poor inhibitor
activity at 15 min, 50 µM ([8]; formation of glucuronide G1, % of control metabolism, raloxifene G1, UGT1A9, inhibitor 50 μM): 84%
activity at 15 min, 50 µM ([8]; formation of glucuronide G2, % of control metabolism, raloxifene G2, UGT1A9, inhibitor 50 μM): 70%
Inhibition of raloxifene glucuronidation, UGT1A9, second line per inhibitor (G2) ([8]; second line (G2, metabolite not given), inhibitor 50 μM, raloxifene 50 μM, 250 μg/ml Supersomes, 1 mM UDPGA, 15 min): 70 (4)
SMILES: CCCCCCCCOC(=O)c1cc(O)c(O)c(O)c1 [Octyl gallate]

— patent US20030215462A1, “Use of UGT inhibitors to increase bioavailability” (priority 2001, published 2003)
